In patent US8962641B2, “Pyrimidine-substituted pyrrolidine derivatives, pharmaceutical compositions and uses thereof” (Boehringer Ingelheim International GmbH, priority 2013, dated 2015) one finds IC50 data, which are given here for 61 molecules.

Structures are written as SMILES. pIC50: −log10 of the molar value.

This assay concerns the target human ACC2 (Homo sapiens (Human), UniProt O00763). Kind of assay: ACC2 assay (spectrophotometric 384 well assay, NADH-linked kinetic method). The conditions noted are these: hACC2 construct lacking 128 N-terminal amino acids; coupled lactate dehydrogenase/pyruvate kinase reaction, 340 nm, 25° C. Type of assay: biochemical. The procedure:
Spectrophotometric 384 Well Assay
Malonyl CoA formation by acetyl CoA carboxylases is stoichometrically linked to the consumption of ATP. ACC2 activity is measured in a NADH-linked kinetic method measuring ADP generated during the ACC reaction using a coupled lactate dehydrogenase/pyruvate kinase reaction.
The protein is then expressed in insect cells using a baculoviral expression system. Protein purification is performed by anion exchange.
All compounds are dissolved in dimethyl sulfoxide (DMSO) to a concentration of 10 mM.
The enzymatic reaction is then started by addition of a mixture of NADH, acetyl Coenzyme A (both 200 μM f.c.) and ATP (500 uM f.c.). The decrease of the optical density (slope S) is then determined at 25° C. at a wavelength of 340 nm over 15 minutes in a spectrophotometric reader.
Each assay microtiter plate contains wells with vehicle instead of compound as controls for the non-inhibited enzyme (100% CTL; ‘HIGH’) and wells without acetyl-CoA as controls for non-specific NADH degradation (0% CTL; ‘LOW’).

Chain of human ACC2 (O00763 129-2458): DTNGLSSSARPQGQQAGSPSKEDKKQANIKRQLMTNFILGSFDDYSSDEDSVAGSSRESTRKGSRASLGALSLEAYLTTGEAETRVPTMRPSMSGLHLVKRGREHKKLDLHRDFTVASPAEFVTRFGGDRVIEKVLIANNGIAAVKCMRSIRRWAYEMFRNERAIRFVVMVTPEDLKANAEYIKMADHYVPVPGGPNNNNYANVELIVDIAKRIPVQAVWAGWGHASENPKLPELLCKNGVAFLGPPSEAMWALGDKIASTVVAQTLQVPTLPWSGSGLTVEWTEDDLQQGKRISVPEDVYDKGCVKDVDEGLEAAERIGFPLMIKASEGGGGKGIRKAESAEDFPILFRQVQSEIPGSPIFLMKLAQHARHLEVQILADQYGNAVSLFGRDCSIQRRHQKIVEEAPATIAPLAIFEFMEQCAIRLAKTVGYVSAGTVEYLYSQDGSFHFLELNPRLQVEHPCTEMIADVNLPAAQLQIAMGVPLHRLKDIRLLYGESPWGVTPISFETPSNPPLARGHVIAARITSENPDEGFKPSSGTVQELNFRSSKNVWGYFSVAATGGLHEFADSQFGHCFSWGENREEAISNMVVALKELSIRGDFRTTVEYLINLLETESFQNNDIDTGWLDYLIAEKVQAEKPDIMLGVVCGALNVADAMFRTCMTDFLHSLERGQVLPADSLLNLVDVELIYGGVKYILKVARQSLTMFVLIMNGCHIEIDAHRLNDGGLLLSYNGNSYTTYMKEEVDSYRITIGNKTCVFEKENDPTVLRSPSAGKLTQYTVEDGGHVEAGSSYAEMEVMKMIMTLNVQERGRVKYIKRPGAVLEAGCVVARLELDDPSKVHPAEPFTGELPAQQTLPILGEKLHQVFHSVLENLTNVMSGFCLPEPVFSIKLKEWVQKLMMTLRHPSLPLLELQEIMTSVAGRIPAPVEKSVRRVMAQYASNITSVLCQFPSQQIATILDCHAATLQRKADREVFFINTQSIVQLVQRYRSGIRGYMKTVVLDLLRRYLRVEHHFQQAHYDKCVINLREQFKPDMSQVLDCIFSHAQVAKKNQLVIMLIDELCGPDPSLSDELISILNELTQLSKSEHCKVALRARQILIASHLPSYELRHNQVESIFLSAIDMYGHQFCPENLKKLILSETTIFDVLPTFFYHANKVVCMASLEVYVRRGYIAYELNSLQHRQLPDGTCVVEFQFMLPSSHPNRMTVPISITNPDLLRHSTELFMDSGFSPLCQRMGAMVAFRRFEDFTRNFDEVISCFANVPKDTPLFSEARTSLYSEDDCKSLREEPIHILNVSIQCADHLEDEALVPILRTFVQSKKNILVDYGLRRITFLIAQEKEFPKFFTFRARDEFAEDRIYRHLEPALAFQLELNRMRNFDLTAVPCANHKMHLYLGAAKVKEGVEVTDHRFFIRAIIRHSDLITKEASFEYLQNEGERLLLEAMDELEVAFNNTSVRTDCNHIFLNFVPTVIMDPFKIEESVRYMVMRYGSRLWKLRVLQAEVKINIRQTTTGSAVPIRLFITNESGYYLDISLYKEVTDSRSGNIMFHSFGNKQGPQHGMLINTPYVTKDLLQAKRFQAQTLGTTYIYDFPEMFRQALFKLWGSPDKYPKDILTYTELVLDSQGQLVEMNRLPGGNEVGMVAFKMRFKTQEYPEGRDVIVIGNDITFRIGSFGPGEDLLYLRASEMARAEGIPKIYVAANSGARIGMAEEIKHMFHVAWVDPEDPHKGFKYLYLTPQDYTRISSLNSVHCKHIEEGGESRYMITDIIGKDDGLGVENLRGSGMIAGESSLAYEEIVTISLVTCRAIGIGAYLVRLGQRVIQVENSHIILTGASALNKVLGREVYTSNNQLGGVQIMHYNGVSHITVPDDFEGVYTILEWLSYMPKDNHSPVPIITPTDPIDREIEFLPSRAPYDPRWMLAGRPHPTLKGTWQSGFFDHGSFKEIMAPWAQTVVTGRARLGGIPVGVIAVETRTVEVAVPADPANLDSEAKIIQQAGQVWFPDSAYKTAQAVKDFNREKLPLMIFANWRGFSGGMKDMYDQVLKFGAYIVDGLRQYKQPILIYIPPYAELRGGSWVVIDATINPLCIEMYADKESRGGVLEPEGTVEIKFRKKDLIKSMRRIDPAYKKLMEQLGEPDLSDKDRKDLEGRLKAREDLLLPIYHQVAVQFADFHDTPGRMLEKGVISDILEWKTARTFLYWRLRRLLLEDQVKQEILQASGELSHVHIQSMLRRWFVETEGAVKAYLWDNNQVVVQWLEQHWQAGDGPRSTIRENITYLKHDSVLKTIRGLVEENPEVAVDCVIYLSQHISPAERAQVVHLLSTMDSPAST

Turning to `CCN(C)c1nccc(N2CC[C@@H](Oc3ccc([C@H](C)NC(=O)C(F)F)cc3)C2)n1` [Example 5.1, N—((S)-1-(4-((R)-1-(2-(ethyl(methyl)amino)pyrimidin-4-yl)pyrrolidin-3-yloxy)phenyl)ethyl)-2,2-difluoroacetamide], the pIC50 (commonly the negative decadic logarithm of the IC50, by convention in mol/L) is 7.23.

For `C[C@H](NC(=O)C(F)F)c1ccc(OC2CCN(c3ccnc(N(C)CC(F)F)n3)C2)cc1` (stereo partly shown) [Example 5.2], the pIC50 was 7.31.

On to `C[C@H](NC(=O)C(F)F)c1ccc(OC2CCN(c3ncnc(OCC4CC4)c3F)C2)cc1` (stereo partly shown) [Example 5.3], for which the pIC50 is 7.19.

With `CC(=O)N[C@@H](C)c1ccc(O[C@@H]2CCN(c3ncc(OCC4CCC4)cn3)C2)cc1` [Example 6.1, N—((S)-1-(4-((R)-1-(5-(cyclobutylmethoxy)pyrimidin-2-yl)pyrrolidin-3-yloxy)phenyl)ethyl)acetamide], the pIC50 is 6.96.

Molecule `CC(=O)N[C@@H](C)c1ccc(O[C@@H]2CCN(c3ncc(C4CC4)cn3)C2)cc1` [Example 6.4] showed a pIC50 of 5.72.

With `CC(=O)N[C@@H](C)c1ccc(O[C@@H]2CCN(c3ncc(OC(C)C)cn3)C2)cc1` [Example 6.6], the pIC50 was 6.08.

The molecule `CC(=O)N[C@@H](C)c1ccc(O[C@@H]2CCN(c3ncc(OCC4CC4)cn3)C2)cc1` [Example 6.7] had a pIC50 of 5.97.

`CC(=O)N[C@@H](C)c1ccc(O[C@@H]2CCN(c3ncc(OCC4CC4(F)F)cn3)C2)cc1` (stereo partly shown) [Example 6.8] gave a pIC50 of 6.79.

Molecule `CC(=O)N[C@@H](C)c1ccc(O[C@@H]2CCN(c3ccnc(C(C)C)n3)C2)cc1` [Example 6.9] had a pIC50 of 6.18.

In turn, `CC(=O)N[C@@H](C)c1ccc(O[C@@H]2CCN(c3nccc(N4CCCC4)n3)C2)cc1` [Example 6.10] gave a pIC50 of 6.03. This pIC50 and that of the molecule before are within 0.2 log units of each other.

`CCN(C)c1ccnc(N2CC[C@@H](Oc3ccc([C@H](C)NC(C)=O)cc3)C2)n1` [Example 6.11] gave a pIC50 of 6.61.

In turn, `CCN(C)c1nc(N2CC[C@@H](Oc3ccc([C@H](C)NC(C)=O)cc3)C2)ncc1F` [Example 6.12] had a pIC50 of 6.08.

For `CCN(CC)c1nc(N2CC[C@@H](Oc3ccc([C@H](C)NC(C)=O)cc3)C2)ncc1F` [Example 6.13], the pIC50 is 6.29.

Molecule `C[C@H](NC(=O)c1cncs1)c1ccc(O[C@@H]2CCN(c3nccc(N4CCOCC4)n3)C2)cc1` [Example 6.14] gave a pIC50 of 6.54.

The molecule `C[C@H](NC(=O)c1cncs1)c1ccc(O[C@@H]2CCN(c3ncc(OCC4CC4(F)F)cn3)C2)cc1` (stereo partly shown) [Example 6.15] had a pIC50 of 6.66.

Turning to `C[C@H](NC(=O)c1cncs1)c1ccc(O[C@@H]2CCN(c3ccnc(C(F)(F)F)n3)C2)cc1` [Example 6.16], the pIC50 was 6.82.

For the molecule `CC(=O)N[C@@H](C)c1ccc(O[C@@H]2CCN(c3ncc(C4CCC4)cn3)C2)cc1` [Example 6.17], the pIC50 was 5.63.

The molecule `CC(=O)N[C@@H](C)c1ccc(O[C@@H]2CCN(c3ncc(C4CCCC4)cn3)C2)cc1` [Example 6.18] had a pIC50 of 6.03.

Regarding `CC(=O)N[C@@H](C)c1ccc(O[C@@H]2CCN(c3ncc(OCCC4CC4)cn3)C2)cc1` [Example 6.19], the negative logarithm of the IC50 (pIC50) was 6.35.

In the case of `CC(=O)N[C@@H](C)c1ccc(O[C@@H]2CCN(c3ncc(OCC(C)C)cn3)C2)cc1` [Example 6.20], the pIC50 was 6.01.

In turn, `CC(=O)N[C@@H](C)c1ccc(O[C@@H]2CCN(c3ccnc(C(F)(F)F)n3)C2)cc1` [Example 6.21] showed a pIC50 of 6.52.

As to `CCCN(C)c1ccnc(N2CC[C@@H](Oc3ccc([C@H](C)NC(C)=O)cc3)C2)n1` [Example 6.22], the pIC50 is 5.87.

Molecule `CC(=O)N[C@@H](C)c1ccc(O[C@@H]2CCN(c3nccc(C(F)(F)F)n3)C2)cc1` [Example 6.23] gave a pIC50 of 5.76.

`CC(=O)N[C@@H](C)c1ccc(O[C@@H]2CCN(c3ncc(C(C)(C)C)cn3)C2)cc1` [Example 6.24]: the pIC50 was 6.09.

In the case of `CCCc1cnc(N2CC[C@@H](Oc3ccc([C@H](C)NC(C)=O)cc3)C2)nc1` [Example 6.25], the pIC50 is 6.15. The pIC50 values of the last two molecules are within 0.2 log units of each other.

`CC(=O)N[C@@H](C)c1ccc(O[C@@H]2CCN(c3ncc(OC[C@H]4CC4(F)F)cn3)C2)cc1` [Example 6.26] showed a pIC50 of 6.92. This pIC50 lies 0.77 log units higher than the previous one.

As to `CC(=O)N[C@@H](C)c1ccc(O[C@@H]2CCN(c3ncnc(OCC4CC4)c3F)C2)cc1` [Example 7.1, N—((S)-1-(4-((R)-1-(6-(cyclopropylmethoxy)-5-fluoropyrimidin-4-yl)pyrrolidin-3-yloxy)phenyl)ethyl)acetamide], the pIC50 was 7.46.

With `CCCOc1cc(N2CC[C@@H](Oc3ccc([C@H](C)NC(C)=O)cc3)C2)ncn1` [Example 7.2], the pIC50 was 6.19. Against the preceding molecule, the pIC50 is 1.27 log units lower.

Regarding `CC(=O)N[C@@H](C)c1ccc(O[C@@H]2CCN(c3cc(OCC4CC4)ncn3)C2)cc1` [Example 7.3], the pIC50 is 6.43.

With `CC(=O)N[C@@H](C)c1ccc(O[C@@H]2CCN(c3cc(OC4CCC4)ncn3)C2)cc1` [Example 7.4], the pIC50 is 6.43.

`CC(=O)N[C@@H](C)c1ccc(O[C@@H]2CCN(c3cc(OCC4CC4(F)F)ncn3)C2)cc1` (stereo partly shown) [Example 7.5]: the pIC50 is 6.07. Compared with the last molecule, the pIC50 is 0.36 log units lower.

Take `CC(=O)N[C@@H](C)c1ccc(O[C@@H]2CCN(c3ccnc(OCC4CC4)n3)C2)cc1` [Example 7.6]: the pIC50 was 5.96.

The molecule `CC(=O)N[C@@H](C)c1ccc(O[C@@H]2CCN(c3ccnc(OC4CCC4)n3)C2)cc1` [Example 7.7] gave a pIC50 of 6.05. This pIC50 and that of the molecule before are within 0.2 log units of each other.

On to `CCCOc1ccnc(N2CC[C@@H](Oc3ccc([C@H](C)NC(C)=O)cc3)C2)n1` [Example 7.8], for which the pIC50 was 5.68.

In the case of `CC(=O)N[C@@H](C)c1ccc(O[C@@H]2CCN(c3cc(OCC(F)(F)F)ncn3)C2)cc1` [Example 7.9], the pIC50 is 6.06.

`CC(=O)N[C@@H](C)c1ccc(O[C@@H]2CCN(c3nc(OC4CCC4)ncc3F)C2)cc1` [Example 7.11] showed a pIC50 of 6.43.

For the molecule `CCOc1ncc(F)c(N2CC[C@@H](Oc3ccc([C@H](C)NC(C)=O)cc3)C2)n1` [Example 7.12], the pIC50 is 6.23. This pIC50 is 0.20 log units lower than that of the molecule before.

`CC(=O)N[C@@H](C)c1ccc(O[C@@H]2CCN(c3nc(OCC(C)C)ncc3F)C2)cc1` [Example 7.14] showed a pIC50 of 6.11.

In the case of `CC(=O)N[C@@H](C)c1ccc(O[C@@H]2CCN(c3nc(OCC(F)F)ncc3F)C2)cc1` [Example 7.15], the pIC50 was 6.08. The pIC50 values of the last two molecules are within 0.2 log units of each other.

`CC(=O)N[C@@H](C)c1ccc(O[C@@H]2CCN(c3ccnc(OCC(C)C)n3)C2)cc1` [Example 7.17]: the pIC50 is 6.02.

The molecule `CC(=O)N[C@@H](C)c1ccc(O[C@@H]2CCN(c3nc(OCC4(C)CC4)ncc3F)C2)cc1` [Example 7.18] gave a pIC50 of 6.25.

As for `CCCOc1ncnc(N2CC[C@@H](Oc3ccc([C@H](C)NC(C)=O)cc3)C2)c1F` [Example 7.19], the pIC50 is 7.19.

Molecule `CC(=O)N[C@@H](C)c1ccc(O[C@@H]2CCN(c3ncnc(OCC4CC4)c3Cl)C2)cc1` [Example 7.20] showed a pIC50 of 7.46. Against the preceding molecule, the pIC50 is 0.27 log units higher.

In the case of `CCCOc1ncnc(N2CC[C@@H](Oc3ccc([C@H](C)NC(C)=O)cc3)C2)c1Cl` [Example 7.21], the pIC50 was 7.35.

For `CCOc1ncnc(N2CC[C@@H](Oc3ccc([C@H](C)NC(C)=O)cc3)C2)c1Cl` [Example 7.22], the pIC50 is 6.85.

In turn, `CCCOc1ncnc(N2CC[C@@H](Oc3ccc([C@H](C)NC(C)=O)cc3)C2)c1C` [Example 7.23] gave a pIC50 of 6.92. This pIC50 and that of the molecule before are within 0.2 log units of each other.

In turn, `CCOc1ncnc(N2CC[C@@H](Oc3ccc([C@H](C)NC(C)=O)cc3)C2)c1C` [Example 7.24] had a pIC50 of 6.40.

Turning to `CC(=O)N[C@@H](C)c1ccc(O[C@@H]2CCN(c3ncnc(OCC4CC4)c3C)C2)cc1` [Example 7.25], the pIC50 was 7.17.

`CCOc1ncnc(N2CC[C@@H](Oc3ccc([C@H](C)NC(C)=O)cc3)C2)c1F` [Example 7.26] showed a pIC50 of 6.83.

For the molecule `CC(=O)N[C@@H](C)c1ccc(O[C@@H]2CCN(c3ncnc(OC4CCC4)c3F)C2)cc1` [Example 7.27], the pIC50 is 7.46.

As to `CC(=O)N[C@@H](C)c1ccc(O[C@@H]2CCN(c3ncnc(OCC(C)C)c3F)C2)cc1` [Example 7.28], the pIC50 was 7.16.

The molecule `CC(=O)N[C@@H](C)c1ccc(O[C@@H]2CCN(c3ncnc(OCC4(C#N)CC4)c3F)C2)cc1` [Example 7.29] had a pIC50 of 6.76.

The molecule `CC(=O)N[C@@H](C)c1ccc(O[C@@H]2CCN(c3ncnc(OCC(F)F)c3F)C2)cc1` [Example 7.30] gave a pIC50 of 6.82.

Regarding `CC(=O)N[C@@H](C)c1ccc(O[C@@H]2CCN(c3ncnc(OCCCF)c3F)C2)cc1` [Example 7.31], the pIC50 was 7.31.

As to `CC(=O)N[C@@H](C)c1ccc(O[C@@H]2CCN(c3ncnc(OCC(C)(C)O)c3F)C2)cc1` [Example 7.32], the pIC50 was 6.84.

On to `CC(=O)N[C@@H](C)c1ccc(O[C@@H]2CCN(c3ncnc(OCC(C)(F)F)c3F)C2)cc1` [Example 7.33], for which the pIC50 was 7.07.

On to `CC(=O)N[C@@H](C)c1ccc(O[C@@H]2CCN(c3ncnc(OCC4CC4(F)F)c3F)C2)cc1` (stereo partly shown) [Example 7.34], for which the pIC50 is 7.20.

For the molecule `C[C@H](NC(=O)OCC1CC1)c1ccc(O[C@@H]2CCN(c3ncnc(OCC4CC4)c3F)C2)cc1` [Example 7.36], the pIC50 was 5.54.

Molecule `CC(=O)N[C@@H](C)c1ccc(O[C@@H]2CCN(c3ncnc(OC4CCOCC4)c3F)C2)cc1` [Example 7.37] showed a pIC50 of 6.60.

As to `CC(=O)N[C@@H](C)c1ccc(O[C@@H]2CCN(c3ncnc(O[C@@H]4CCOC4)c3F)C2)cc1` [Example 7.38], the pIC50 is 6.71.

For the molecule `CC(=O)N[C@@H](C)c1ccc(O[C@@H]2CCN(c3ncnc(OCC(C)(F)F)c3Cl)C2)cc1` [Example 7.39], the pIC50 was 7.22.
